Assay [1] relates to P-selectin. Put plainly: P-Selectin Adhesion Receptor Binding (cell-free ELISA, inhibition of P-selectin binding to immobilized sulfatides). The source says:
P-selectin (GMP140, granule membrane protein-140, PADGEM, or CD62) is a calcium-dependent transmembrane protein found in alpha granules of endothelial cells and platelets. It is an inducible selectin produced on activated endothelium and platelets which recognize alpha(2-3)sialylated and alpha(1-3)fucosylated lactosaminoglycans which include the sequence, Lewis x (Zhou et al., J. Cell. Biol., (1991) 115 (2): 557-564) and sulfatides (3-sulfated galactosyl ceramides, Aruffo, et al., Cell (1991) 67: 35-44). P-selectin may be responsible for the initial adhesion events between endothelium and neutrophils as evidenced by leukocyte rolling induced by P-selectin in flow cells (Lawrence, M., and T. Springer, Cell (1991) 65: 859-873).
Based on the availability of soluble forms of P-selectin prepared as described by Aruffo, A., et al., Cell, 67, 35-44 (1991), a binding ELISA based assay modified from Foxall, et al., J., Cell Biol., 117, 895-902 (1992) was developed to measure inhibitors of P-selectin binding to immobilized sulfatides. Such inhibitors were tested in the assay described below.
0.1 ml of sulfatide (SIGMA) at 1 μg/ml in MeOH was added to 48 wells of a 96-well ELISA plate (ProBind, Falcon) and allowed to dry overnight at room temperature. Another set of 48 wells were incubated with the solvent (methanol, Fisher Scientific). The next day the antigen/solvent coated plates were blocked for 1.5 hours at room temperature with 5% BSA (ICN) in buffer containing 20 mM Hepes, 1 mM CaCl2 and 0.15M NaCl, pH 8.0. Wild type P-selectin was first mixed with HRP-conjugated goat anti-human IgG (1:5000 dilution, Fisher Scientific), and incubated for 30 minutes at 37° C. in buffer containing 20 mM Hepes, 0.15M NaCl, 1% BSA and 1 mM CaCl2, pH 8.0 prior to addition to the BSA blocked plates. Following the 30 minute preincubation, the fusion protein-HRP conjugate immunocomplexes were incubated on the blocked antigen coated plates for 45 minutes at 37° C. in the presence or absence of the test compounds and then washed to remove any unbound proteins. Bound complexes were detected by addition of substrate buffer (95 mM NaOAc.3H2 O, 5 mM citric acid monohydrate, 1.4 mM urea/H2 O2) containing 3, 3', 5, 5' Tetramethylbenzidine (SIGMA). Reactions were stopped by the addition of 3N sulfuric acid and the absorbance read on an ELISA reader at dual wavelengths 450 and 630 nm. The efficacy of these compounds was compared to that of sulfatide (positive control) or to MeOH (negative control). The data is obtained as percent inhibition of specific binding [formula] and a plot of dose vs. percent inhibition of Rg binding is generated in which IC50 (μM) is calculated and reported as cell free data in Table 1.
In general terms: ELISA stands for enzyme-linked immunosorbent assay.

The subject of assay [2] is HL-60 cells / activated platelets (P-selectin). Put plainly: HL-60 Platelet Cell Adhesion Assay. To be noted: HL-60 cell adhesion to thrombin-activated human platelets. In kind it is cell-based. The protocol:
HL-60 cells, obtained from American Type Culture Collection, were cultured in RPMI 1640 medium (GIBCO) supplemented with 20% fetal calf serum (Sigma) and 50 μg/ml gentamicin (GIBCO). Cells in log phase growth were harvested, washed and resuspended in Tyrodes buffer containing 5 mM HEPES and 0.2% bovine serum albumin and were fixed with 1% buffered formalin.
Blood from normal human donors was anticoagulated with citrate, layered over 1-Step Platelets (Accurate Chemical Co.), and centrifuged at 350 g for 20 minutes at room temperature. The platelet band was collected, diluted in 2 volumes of Tyrode's Buffer with 5 mM HEPES, 10 mM EDTA, and 0.2% BSA (pH 7.4) (THEB) and centrifuged at 600 g for 10 minutes. The platelet pellet was resuspended in THEB and incubated at room temperature for 1 hour. Calcein-acetoxy methylester (Calcein-Am, Molecular Probes) was added to the platelets at a final concentration of 10 μM and incubated for 10 minutes at 37° C. to label the platelets. Without washing, the platelets were counted on a Coulter counter model ZM, and the concentration was adjusted to 1×10^7 /ml. The platelets were activated with 2 U/ml of human thrombin for 10 minutes in Tyrode's containing 2 mM CaCl2, 5 mM HEPES, and 0.2% BSA (pH 7.4) (THB) at 37° and immediately fixed with 1% buffered formalin for 1 to 2 hours at room temperature. A small aliquot of labeled platelets was removed before activation and designated as non-activated.
Both platelets and HL-60 were washed in a ≥5 fold excess volume of Hanks Balanced Salt Solution (HBSS), resuspended in THB and counted. Cell concentrations were adjusted to 2×10^7 /ml for platelets and 4×10^6 /ml for HL-60, this ratio determined to be optimum for platelet: HL-60 cell adhesion. Compounds were incubated with 50 μl of platelets for 30 minutes at room temperature before addition of 50 μl of HL-60. This ratio of 5:1 platelets to HL-60 was incubated for 30 minutes at room temperature before addition of 0.2 ml of THB to increase the volume so the samples could be analyzed on a FACScan cytometer (Becton Dickinson). Non-activated platelets, and activated platelets with 10 mM EDTA were included as controls. Data were collected within a region set for the forward scatter channel corresponding to HL-60 size events.
The percent HL-60 cells which contained bound platelets was determined for each test condition. The inhibition of binding was determined by comparison to standards which were treated with vehicle alone (representing 0% inhibition) and standards whose specific binding had been blocked by the use of EDTA (representing 100% inhibition), by the following formula: [formula] where x=HL-60 cells containing bound platelets in the presence of the compound;
b=HL-60 cells containing bound platelets in the presence of EDTA;
a=HL-60 cells containing bound platelets in presence of compound vehicle;
z=% inhibition of platelet: HL-60 cell adhesion

Molecules are shown by their SMILES.

We go through five compounds from patent publication US5686426A, “Dicarboxymethylated glycolipid derivatives as cell adhesion inhibitors” (Bristol-Myers Squibb Company, priority 1994, dated 1997).

For `CCCCCCCCCCCCC/C=C/[C@@H](OC(=O)c1ccccc1)[C@H](CO[C@H]1O[C@H](COCC(=O)O)[C@H](OCC(=O)O)[C@H](OC(=O)c2ccccc2)[C@H]1OC(=O)c1ccccc1)NC(=O)CCCCCCCCCCCCCCC` [Example 2, (2S,3R,4E)-3-Benzoyloxy-2-hexadecanoylamino-1-[2,3-di-O-benzoyl-4,6-di-O-carboxymethyl-α-D-galactopyranosyloxy]-4-octadecene], the IC50 is 0.92 µM in assay [1] and 32 µM in assay [2].
For `CCCCCC/C=C/[C@@H](OC(=O)c1ccccc1)[C@H](CO[C@H]1O[C@H](COCC(=O)O)[C@H](OCC(=O)O)[C@H](OC(=O)c2ccccc2)[C@H]1OC(=O)c1ccccc1)NC(=O)CCCCCCCCC(=O)OC` [Example 8, (2S,3R,4E)-3-Benzoyloxy-2-(9-methoxycarbonyl-nonanoylamino)-1-(2,3-di-O-benzoyl-4,6-di-O-carboxymethyl-α-D-galactopyranosyloxy)-4-undecene], in that order: greater than 50 µM and greater than 100 µM.
On the same counts, the results for `CCCCCCCCCCCCC/C=C/[C@@H](OC(=O)c1ccccc1)[C@H](CO[C@H]1O[C@H](COCC(=O)O)[C@H](OCC(=O)O)[C@H](O)[C@H]1OC(=O)c1ccccc1)NC(=O)CCCCCCCCCCCCCCC` [Example 14, (2S,3R,4E)-3-Benzoyloxy-2-hexadecanoylamino-1-[2-O-benzoyl-4,6-di-O-carboxymethyl-α-D-galactopyranosyloxy]-4-octadecene] are 0.7 µM and 20 µM.
On the same counts, the results for `CCCCCCCCCCCCC/C=C/[C@@H](OC(=O)c1ccccc1)[C@H](CO[C@@H]1O[C@H](COCC(=O)O)[C@H](OCC(=O)O)[C@H](OC(=O)c2ccccc2)[C@H]1OC(=O)c1ccccc1)NC(=O)CCCCCCCCCCCCCCC` [Example 16, (2S,3R,4E)-2-Hexadecanoylamino-3-benzoyloxy-1-(4,6-di-O-carboxymethyl-2,3-di-O-benzoyl-β-D-galactopyranoside)-4-octadecene] are 3.5 µM and 10.1 µM.
`CCCCCCCCCCCCC/C=C/[C@@H](OC(=O)c1ccccc1)[C@H](CO[C@@H]1O[C@H](COCC(=O)O)[C@H](OCC(=O)O)[C@H](OC(=O)c2ccccc2)[C@H]1O)NC(=O)CCCCCCCCCCCCCCC` [Example 18, (2S,3R,4E)-3-Benzoyloxy-2-hexadecanoylamino-1-[3-O-benzoyl-4,6-di-O-carboxymethyl-β-D-galactopyranosyloxy]-4-octadecene]: the IC50 in assay [1] is less than 0.03 µM; in assay [2] it was 7 µM.

What is called IC50 is the concentration at which inhibition is half-maximal. A lower IC50 goes with greater potency in that assay.
